{"source": "patent US5100647A", "about": "“Method and formulations for the therapy of cystic fibrosis, Bartter's syndrome and secretory diarrheas, and for diuretic treatment” (The Trustees of the University of Pennsylvania, priority 1990, dated 1992)", "key": {"[1]": {"system": "potassium conductance of pancreatic beta cells", "details": "cited from earlier work"}, "[2]": {"details": "cited from earlier work"}, "[3]": {"details": "cited from earlier work", "remark": "listed apart in the source"}, "potassium channel": {"system": "potassium channel", "details": "requires millimolar concentrations; cited from earlier work"}, "[4]": {"system": "chloride conductance of CF/T43 cells", "experiment": "whole-cell chloride current in CF/T43 cystic fibrosis airway epithelial cells", "assay_type": "cell-based, human", "protocol": "An aliquot of cells from a cell line, CF/T43, derived from airway epithelia from a patient with cystic fibrosis were used.\nData were obtained using internal and external solutions as described by McCann, Li and Welsh in studies of whole cell ICI in normal human airway epithelial cells so as to be able to compare our data with theirs. The internal solutions are cesium-based providing a minimal internal calcium concentration (nominally 0-10 nM, with EGTA) and the external solution is sodium-based with symmetrical CI concentrations of 140 mM. No cyclic nucleotides are included in the solutions and amiloride is added to block the sodium conductance."}, "chloride channel": {"system": "chloride channel", "experiment": "whole-cell patch clamp of chloride channel current in isolated cells from a cultured kidney cell line", "source_text": "Using isolated cells from a cultured kidney cell line, we tested the effects of various doses of Sparteine applied to the interior and exterior of the cell on current through the chloride channel as measured with standard patch clamp electrophysiologic techniques."}, "sodium channels": {"target": "sodium channels (Cavia porcellus, UniProt A0A286Y3I8)", "details": "requires millimolar concentrations; cited from earlier work"}}, "note": "Structures can show the parent of a compound that is named as a salt. Where two headings read alike, the source gives them in different places.", "data": [{"molecule": "C1CCN2C[C@@H]3C[C@@H](CN4CCCC[C@@H]34)[C@H]2C1", "note": "[Sparteine sulfate]", "values": [{"measurement": "potassium conductance of pancreatic beta cells", "setting": "[1]", "result": "decreases the potassium conductance"}, {"measurement": "water solubility and stability", "setting": "[2]", "result": "water soluble and stable"}, {"measurement": "insulin secretion", "setting": "[3]; healthy human beings", "result": "enhance insulin secretion"}, {"measurement": "glucagon secretion", "setting": "[3]; insulin-dependent diabetics", "result": "increase glucagon secretion"}, {"measurement": "insulin secretion", "setting": "[3]; non-diabetic obese individuals, intravenous administration", "result": "significant increase in insulin secretion"}]}, {"molecule": "C1CCN2CC3CC(CN4CCCCC34)C2C1", "note": "(stereo not drawn) [Sparteine, dodecahydro-7,14-methano-2H,6H-di-pyrido[1,2-a:1',2'-e][1,5]diazocine]", "values": [{"measurement": "action on olfactory tract axons", "setting": "potassium channel", "result": "potassium channel blocker"}, {"measurement": "current amplitude", "setting": "[4]; external 0.1 nM, no cyclic nucleotides, minimal internal calcium, amiloride present", "result": "marked increase in current amplitude"}, {"measurement": "reversal potential of the induced current", "setting": "[4]; external 0.1 nM, symmetrical Cl 140 mM", "result": 0, "unit": "mV"}, {"measurement": "induction of chloride current in cystic fibrosis cells", "setting": "[4]; pM, absence of cytosolic Ca^2+ and cyclic nucleotides", "result": "induces a chloride current"}, {"measurement": "reversibility of the activated current", "setting": "[4]; washout", "result": "reversible"}, {"measurement": "chloride current relative to the control value", "setting": "chloride channel; Sparteine 0.1, 50 and 500 μM", "result": "10-20 X"}, {"measurement": "peak current through the chloride channel", "setting": "chloride channel; Sparteine 0.1, 50 and 500 μM, cells dialyzed with ATP, no cAMP, 10 nM calcium, depolarized to +70 mV from holding potential -45 mV", "result": "80-200 μA/cm^2"}, {"measurement": "time course of the activated current with increasing dose", "setting": "chloride channel; above 0.1 μM", "result": "increasingly rapid decline in the activated current"}, {"measurement": "effect of externally applied compound on chloride current", "setting": "chloride channel; external, 0.1 to 10 nM", "result": "marked augmentation of the chloride current"}, {"measurement": "effect on the chloride channel at higher concentrations", "setting": "chloride channel; higher (micromolar-millimolar) concentrations", "result": "potent inhibitor"}, {"measurement": "effect on the chloride channel at low concentrations", "setting": "chloride channel; low (pico-nanomolar) concentrations", "result": "very potent activator"}, {"measurement": "antiarrhythmic classification due to effects on sodium channels", "setting": "sodium channels", "result": "Class 1 cardiac antiarrhythmic"}]}, {"molecule": "calcium", "values": [{"measurement": "maximum chloride current with known activator added to the internal solution", "setting": "chloride channel; depolarized to +70 mV from -45 mV", "result": "40-50"}]}]}
